Reference: patent US11584747B2, “Substituted pyridopyrimidinonyl compounds useful as T cell activators” (BRISTOL-MYERS SQUIBB COMPANY, priority 2019, dated 2023)
Read-outs that look alike come from different tables or passages of the source.

Tests used:
[1] = molecular target: T1, human DGKα (Homo sapiens (Human), UniProt P23743); test: DGKα LIPGLO assay (extruded liposome substrate, ADP-Glo luminescence); type: biochemical; details: liposome assay; read-out: DGK alpha LIPGLO IC50
[2] = system: whole blood (pERK); test: pERK Whole Blood assay (Table A; no whole-blood pERK method described); type: cell-based; details: normalized
[3] = molecular target: human DGKζ (Homo sapiens (Human), UniProt Q13574); test: DGKζ LIPGLO assay (extruded liposome substrate, ADP-Glo luminescence); type: biochemical; details: liposome assay; read-out: DGK zeta LIPGLO IC50
Sequence of human DGKζ (Q13574 other isoform, or with tags, fused parts or gaps): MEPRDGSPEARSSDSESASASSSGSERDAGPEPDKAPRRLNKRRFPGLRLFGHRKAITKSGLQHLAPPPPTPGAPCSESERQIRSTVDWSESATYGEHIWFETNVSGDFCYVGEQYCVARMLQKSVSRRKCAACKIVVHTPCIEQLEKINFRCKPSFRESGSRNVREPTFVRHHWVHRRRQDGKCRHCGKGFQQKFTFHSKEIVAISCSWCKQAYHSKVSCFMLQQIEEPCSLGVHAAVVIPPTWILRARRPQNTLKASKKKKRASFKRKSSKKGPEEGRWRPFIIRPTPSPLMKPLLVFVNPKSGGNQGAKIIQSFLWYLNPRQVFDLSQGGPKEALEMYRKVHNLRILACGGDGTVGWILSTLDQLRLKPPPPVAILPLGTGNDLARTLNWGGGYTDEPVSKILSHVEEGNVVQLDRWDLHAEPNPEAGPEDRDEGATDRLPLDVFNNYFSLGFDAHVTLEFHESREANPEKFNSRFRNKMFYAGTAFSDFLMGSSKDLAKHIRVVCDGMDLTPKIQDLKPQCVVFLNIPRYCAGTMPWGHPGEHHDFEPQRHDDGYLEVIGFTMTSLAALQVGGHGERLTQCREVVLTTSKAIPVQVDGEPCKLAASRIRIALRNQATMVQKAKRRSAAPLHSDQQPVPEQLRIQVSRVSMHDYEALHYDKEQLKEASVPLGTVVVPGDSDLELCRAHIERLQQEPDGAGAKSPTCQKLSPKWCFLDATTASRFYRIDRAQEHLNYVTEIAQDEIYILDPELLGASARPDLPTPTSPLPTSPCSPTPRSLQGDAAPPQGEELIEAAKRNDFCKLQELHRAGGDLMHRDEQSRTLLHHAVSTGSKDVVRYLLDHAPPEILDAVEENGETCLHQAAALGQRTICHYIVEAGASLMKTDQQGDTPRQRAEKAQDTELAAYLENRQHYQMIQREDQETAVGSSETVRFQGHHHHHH

[4] = molecular target: T1, human DGKα; test: DGKα ADPGLO assay (detergent/lipid micelle substrate); type: biochemical; details: truncated DGK alpha; read-out: DGK alpha ADPGLO (Truncated) IC50
Experimental: DGK Alpha ADPGLO (Truncated) IC50 (uM)
The detergent/lipid micelle was prepared by combining 15 g phosphatidylserine (Avanti 840035P) and 1 g diacylglycerol (8008110) and dissolving into 150 mL chloroform in a 2 L round bottom flask. Chloroform was removed under high vacuum by rotary evaporation. […] The lipid/detergent solution was split into 5 mL aliquots and stored at −80° C.

[5] = system: human venous whole blood (IFN-γ); test: Human whole blood IFN-γ assay; type: cell-based; details: whole blood, normalized to 3 μM reference compound as 100% activation, read-out: IFN-γ Whole Blood Normalized EC50
Experimental: Human venous whole blood (22.5 μL per well), obtained from healthy donors, was pre-treated with compounds for one hour at 37° C. in a humidified 95% air/5% CO2 incubator. The blood was stimulated with 2.5 μL anti-human CD3 and anti-CD28 mAb at a final concentration of 1 μg/mL each for 24 hours at 37° C. IFN-γ in the supernatants was measured using AlphLISA kit (Cat #AL217).

T1 sequence (P23743 whole entry, looked up): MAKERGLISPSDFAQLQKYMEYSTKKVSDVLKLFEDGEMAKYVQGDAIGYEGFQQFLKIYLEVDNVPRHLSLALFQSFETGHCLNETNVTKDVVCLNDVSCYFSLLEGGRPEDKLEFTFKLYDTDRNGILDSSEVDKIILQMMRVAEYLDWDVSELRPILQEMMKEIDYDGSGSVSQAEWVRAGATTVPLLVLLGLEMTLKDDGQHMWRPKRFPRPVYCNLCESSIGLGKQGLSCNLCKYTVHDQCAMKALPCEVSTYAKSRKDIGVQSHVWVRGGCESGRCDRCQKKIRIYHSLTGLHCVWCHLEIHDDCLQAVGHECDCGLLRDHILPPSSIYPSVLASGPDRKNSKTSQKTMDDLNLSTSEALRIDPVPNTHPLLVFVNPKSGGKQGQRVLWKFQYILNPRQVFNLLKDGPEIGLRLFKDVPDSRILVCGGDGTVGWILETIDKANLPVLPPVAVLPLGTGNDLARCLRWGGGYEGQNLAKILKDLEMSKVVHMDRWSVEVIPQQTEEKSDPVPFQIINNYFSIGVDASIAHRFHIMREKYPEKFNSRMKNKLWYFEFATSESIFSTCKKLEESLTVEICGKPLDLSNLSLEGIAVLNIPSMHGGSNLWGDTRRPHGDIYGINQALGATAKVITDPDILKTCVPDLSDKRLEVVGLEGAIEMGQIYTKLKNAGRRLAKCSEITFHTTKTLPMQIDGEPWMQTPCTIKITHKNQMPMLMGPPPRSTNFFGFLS

| SMILES | IC50 [1] [µM] | IC50 [3] [µM] | IC50 [4] [µM] | IC50 [2] [µM] | EC50 [5] [µM] | EC50 ([5]; Homo sapiens) [µM] |
| --- | --- | --- | --- | --- | --- | --- |
| CC(c1ccc(C(F)(F)F)cc1F)N1C[C@H](C)N(c2nc(=O)n(C)c3ccc(C#N)nc23)C[C@H]1C (single isomer, unassigned) [Example 151] | 3.46 | 0.83 |  | 1.87 |  |  |
| CC[C@@H]1CN(c2nc(=O)n(C)c3ccc(C#N)nc23)[C@@H](C)CN1C(c1ccc(Cl)cc1)c1ccccn1 (single isomer, unassigned) [Example 96] |  |  | 0.096 | 0.2 | 0.057 |  |
| CC[C@H]1CN(C(C)c2ccc(CN3CCC[C@@H](O)C3)cc2)[C@H](CC)CN1c1nc(=O)n(C)c2ccc(C#N)nc12 (stereo partly drawn) [Example 289, 4-((2S,5R)-2,5-diethyl-4-(1-(4-(((R)-3-hydroxypiperidin-1-yl)methyl)phenyl)ethyl)piperazin-1-yl)-1-methyl-2-oxo-1,2-dihydropyrido[3,2-d]pyrimidine-6-carbonitrile] |  | 8.64 | 2.7 | 0.35 |  | 5.72 |
| CC[C@H]1CN(C(C)c2cnc(N3CCOCC3)nc2)[C@H](CC)CN1c1nc(=O)n(C)c2ccc(C#N)nc12 (stereo partly drawn) [Example 206, 4-((2S,5R)-2,5-diethyl-4-(1-(2-morpholinopyrimidin-5-yl)ethyl)piperazin-1-yl)-1-methyl-2-oxo-1,2-dihydropyrido[3,2-d] pyrimidine-6-carbonitrile] |  | 51 | 3.98 | 0.08 | 20 |  |
| CC[C@H]1CN(C(C)c2ccc(CN3CCN(C(C)=O)CC3)cc2)[C@H](CC)CN1c1nc(=O)n(C)c2ccc(C#N)nc12 (stereo partly drawn) [Example 283, 4-((2S,5R)-4-(1-(4-((4-acetylpiperazin-1-yl)methyl)phenyl)ethyl)-2,5-diethylpiperazin-1-yl)-1-methyl-2-oxo-1,2-dihydropyrido[3,2-d]pyrimidine-6-carbonitrile] |  | 2.43 | 0.2 | 6.26 | 1.25 |  |
| CC[C@@H]1CN(c2nc(=O)n(C)c3ccc(C#N)nc23)[C@@H](C)CN1C(c1ccc(OC(F)(F)F)cc1)c1ccccn1 (single isomer, unassigned) [Example 93] |  | 0.52 | 0.018 | 0.67 | 0.17 |  |
| CC[C@H]1CN(C(C)c2cccc(OC(F)(F)F)n2)[C@H](CC)CN1c1nc(=O)n(C)c2ccc(C#N)nc12 (stereo partly drawn) [Example 246, 4-((2S,5R)-2,5-diethyl-4-(1-(6-(trifluoromethoxy)pyridin-2-yl)ethyl)piperazin-1-yl)-1-methyl-2-oxo-1,2-dihydropyrido[3,2-d]pyrimidine-6-carbonitrile] |  | 5.85 | 4.67 | 0.44 |  |  |
| CCC(c1ccc(OC(F)F)cc1F)N1C[C@H](CC)N(c2nc(=O)n(C)c3ccc(C#N)nc23)C[C@H]1CC (stereo partly drawn) [Example 232, 4-((2S,5R)-4-(1-(4-(difluoromethoxy)-2-fluorophenyl)propyl)-2,5-diethylpiperazin-1-yl)-1-methyl-2-oxo-1,2-dihydropyrido[3,2-d]pyrimidine-6-carbonitrile] |  | 0.013 | 0.002 | 0.044 | 0.044 |  |
| CC[C@H]1CN(C(C)c2cccc(OC(F)(F)F)n2)[C@H](CC)CN1c1nc(=O)n(C)c2ccc(C#N)nc12 (stereo partly drawn) [Example 245, 4-((2S,5R)-2,5-diethyl-4-(1-(6-(trifluoromethoxy)pyridin-2-yl)ethyl)piperazin-1-yl)-1-methyl-2-oxo-1,2-dihydropyrido[3,2-d]pyrimidine-6-carbonitrile] |  | 0.29 | 0.018 | 0.41 |  | 0.22 |
| CC[C@H]1CN(C(C)c2cccc(OC)n2)[C@H](CC)CN1c1nc(=O)n(C)c2ccc(C#N)nc12 (stereo partly drawn) [Example 214, 4-((2S,5R)-2,5-diethyl-4-(1-(6-methoxypyridin-2-yl)ethyl)piperazin-1-yl)-1-methyl-2-oxo-1,2-dihydropyrido[3,2-d]pyrimidine-6-carbonitrile] |  | 6.62 | 2.01 | 0.066 | 20 |  |

Further lines, with some results ahead:

| IC50 [1] [µM] | IC50 [3] [µM] | IC50 [4] [µM] | SMILES | IC50 [2] [µM] | EC50 [5] [µM] | EC50 ([5]; Homo sapiens) [µM] |
| --- | --- | --- | --- | --- | --- | --- |
|  | 0.11 | 0.077 | CC[C@H]1CN(C(C)c2cccc(OC)n2)[C@H](CC)CN1c1nc(=O)n(C)c2ccc(C#N)nc12 (stereo partly drawn) [Example 215, 4-((2S,5R)-2,5-diethyl-4-(1-(6-methoxypyridin-2-yl)ethyl)piperazin-1-yl)-1-methyl-2-oxo-1,2-dihydropyrido[3,2-d]pyrimidine-6-carbonitrile] | 20 | 0.17 |  |
|  | 0.058 | 0.009 | CCC(c1ccc(C)cc1)N1C[C@H](CC)N(c2nc(=O)n(C)c3ccc(C#N)nc23)C[C@H]1CC (stereo partly drawn) [Example 236, 4-((2S,5R)-2,5-diethyl-4-(1-(p-tolyl)propyl)piperazin-1-yl)-1-methyl-2-oxo-1,2-dihydropyrido[3,2-d]pyrimidine-6-carbonitrile] | 0.044 | 0.012 |  |
|  | 0.92 | 0.46 | CC[C@H]1CN(C(C)c2cccc(OC(F)F)n2)[C@H](CC)CN1c1nc(=O)n(C)c2ccc(C#N)nc12 (stereo partly drawn) [Example 241, 4-((2S,5R)-4-(1-(6-(difluoromethoxy)pyridin-2-yl)ethyl)-2,5-diethylpiperazin-1-yl)-1-methyl-2-oxo-1,2-dihydropyrido[3,2-d]pyrimidine-6-carbonitrile] | 0.19 | 2.42 |  |
|  | 0.31 | 0.014 | CC[C@H]1CN(C(C)c2ccc(OC(C)(C)COC)cc2)[C@H](CC)CN1c1nc(=O)n(C)c2ccc(C#N)nc12 (some centres unmarked) [Example 188] | 0.27 | 0.073 |  |
|  | 0.11 | 0.073 | CC[C@H]1CN(C(C)c2cccc(OC(F)F)n2)[C@H](CC)CN1c1nc(=O)n(C)c2ccc(C#N)nc12 (stereo partly drawn) [Example 240, 4-((2S,5R)-4-(1-(6-(difluoromethoxy)pyridin-2-yl)ethyl)-2,5-diethylpiperazin-1-yl)-1-methyl-2-oxo-1,2-dihydropyrido[3,2-d]pyrimidine-6-carbonitrile] | 0.29 | 0.27 |  |
|  | 0.92 | 0.63 | CCC(c1ccc(OCC2CC2)cc1F)N1C[C@H](CC)N(c2nc(=O)n(C)c3ccc(C#N)nc23)C[C@H]1CC (stereo partly drawn) [Example 199, 4-((2S,5R)-4-(1-(4-(cyclopropylmethoxy)-2-fluorophenyl)propyl)-2,5-diethylpiperazin-1-yl)-1-methyl-2-oxo-1,2-dihydropyrido[3,2-d]pyrimidine-6-carbonitrile] | 11.3 | 2.06 |  |
|  | 0.1 | 0.041 | CCC(c1ccc(CN2CCOCC2)cc1)N1C[C@H](CC)N(c2nc(=O)n(C)c3ccc(C#N)nc23)C[C@H]1CC (stereo partly drawn) [Example 267, 4-((2S,5R)-2,5-diethyl-4-(1-(4-(morpholinomethyl)phenyl)propyl)piperazin-1-yl)-1-methyl-2-oxo-1,2-dihydropyrido[3,2-d]pyrimidine-6-carbonitrile] | 1.02 | 0.045 |  |
|  | 0.12 | 0.058 | CCC(c1ccc(OC2CC2)cc1)N1C[C@H](CC)N(c2nc(=O)n(C)c3ccc(C#N)nc23)C[C@H]1CC (stereo partly drawn) [Example 255, 4-((2S,5R)-4-(1-(4-cyclopropoxyphenyl)propyl)-2,5-diethylpiperazin-1-yl)-1-methyl-2-oxo-1,2-dihydropyrido[3,2-d]pyrimidine-6-carbonitrile] | 0.54 |  |  |
